Test results as given in paper PMC12028738 (Marine Drugs, 2025).
Where no end group is shown, it is not given here.

What was measured:
CT26 tumor = settings: 2 mg/kg, CT26 tumor-bearing mice; cited from earlier work
Text: (§1) With continuous progress of modern separation and analysis techniques, high-throughput screening methods for enzyme inhibitory peptides have emerged as powerful tools in the discovery of bioactive peptides. Recently, the methodologies based on the phage display library, bacteria display library, and peptide fragment of proteins have been applied in screening for PD-L1 inhibitors.

PD-1/PD-L1 binding = settings: read-out: PD-1/PD-L1 inhibitory IC50; cited from earlier work
Text: as §1

Water-solubility = type: physicochemical; settings: qualitative statement
[1] = target: T1, recombinant human PD-L1 (residue 18–239, extracellular domain) (human, UniProt Q9NZQ7 18-239); assay: SPR; Biacore T200, 25 °C; PD-L1 amine-coupled on a CM5 chip to about 5600 RU; peptides injected in PBS-P (1% DMSO) at 30 µL/min, 60 s contact, 60 s dissociation; settings: both partners purified
T1 construct: Programmed death ligand 1 (PD-L1, B7-H1, CD274), human, residues 18-239, extracellular domain; The limits 18-239 are told for the SPR experiment; No tag is stated; also called programmed death ligand 1; source: bought: Abcam (recombinant, 25 kDa)

Tag1-PD-L1 protein = Tag1-PD-L1 protein (UniProt Q9NZQ7 19-238); assay: AlphaScreen or HTRF; Cisbio PD-1/PD-L1 HTRF binding assay kit; competition: analyte with Tag1-PD-L1 and Tag2-PD-1 for 15 min at room temperature, then anti-Tag1-Eu3+ and anti-Tag2-XL665 for 2 h at room temperature; settings: both partners purified

Row | Molecule | Kd [1] [µM] | IC50 (Tag1-PD-L1 protein) [µM] | further results
1 | NYSKPTDRQYHF [^DPPA-1] |  |  | prolongation of survival time (CT26 tumor): ~50%; tumor growth (CT26 tumor): inhibited the tumor growth
2 | CKWYRPSEC [cyclic peptide C8, not the ascidian peptide C8] |  |  | IC50 (PD-1/PD-L1 binding): < 10 µM
3 | LDVVIHTVTYGDR [C5] |  |  | water-solubility (Water-solubility): poor
4 | LDVVIHTVTYGDR (from the Ciona intestinalis trypsin hydrolysate; written as one molecule; The parent protein is not known; also called peptide C5; source: trypsin hydrolysate of Ciona intestinalis (AUF); synthetic peptide, GuoPing Pharmaceutical (HTRF, SPR)) [C5] | 22.9 | 33.9 | 
5 | VLRDNIQGITKPAIR (from the Styela clava trypsin hydrolysate; candidate protein: Histone H4 (Transparent ascidian); the text says that it exactly matches Histone H4 of Ciona savignyi; written as one molecule; also called peptide S2; source: trypsin hydrolysate of Styela clava (AUF); synthetic peptide, GuoPing Pharmaceutical (HTRF, SPR)) [S2] | 29.1 | 113 | 
